Data from US5686104A, “Stable oral CI-981 formulation and process of preparing same” (Warner-Lambert Company, priority 1994, dated 1997).
Structures can show the parent of a compound that is named as a salt.

Tests used:
[1] = tested on: sterol synthesis (rat liver homogenate); conditions: read-out: IC50, concentration required for 50% inhibition of sterol synthesis, one-hour period, data disclosed in U.S. Pat. No. 5,273,995; cited from earlier work
[2] = Stability of the hydroxy acid compounds in acidic environment, under light, or in wet-granulated compositions (statement); assay type: physicochemical; conditions: no calcium carbonate

Row | SMILES | IC50 [1] [nM] | degradation in compositions prepared by the wet-granulation method [2]
1 | CC(C)c1c(C(=O)Nc2ccccc2)c(-c2ccccc2)c(-c2ccc(F)cc2)n1CC[C@@H](O)C[C@@H](O)CC(=O)O (relative stereo) [Racemate] | 45 | –
2 | CC(C)c1c(C(=O)Nc2ccccc2)c(-c2ccccc2)c(-c2ccc(F)cc2)n1CC[C@@H](O)C[C@@H](O)CC(=O)O [CI-981 Hemi-Calcium, [R-(R*,R*)]-2-(4-fluorophenyl)-β,δ-dihydroxy-5-(1-methylethyl)-3-phenyl-4-[(phenylamino)carbonyl]-1H-pyrrole-1-heptanoic acid hemicalcium salt] | 4.4 | degrades rapidly
3 | CC(C)c1c(C(=O)Nc2ccccc2)c(-c2ccccc2)c(-c2ccc(F)cc2)n1CC[C@H](O)C[C@H](O)CC(=O)O [[S-(R*R*)] isomer] | 440 | –
